Like-named read-outs stand apart in the source and are kept apart here.
Assays:
[1] = system: HCMV (strain AD169); assay: Inhibition of HCMV replication, ELISA assay (Hs-68 cells); type: cell-based, Human Cytomegalovirus (HCMV); conditions: read-out: ELISA CMV EC50
Procedure, shortened: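 Hs-68 fibroblasts at 80–90% confluency infected with HCMV AD169 at MOI 0.01 PFU/cell for 2 h, washed, then cultured 8 days at 37 °C with test compound in DMEM/5% FBS. Late protein p28 detected by ELISA (mAb UL99, HRP/OPD, 450 nm); EC50 from % inhibition of replication.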

[2] = Inhibition of HCMV replication, plaque reduction assay (PRA, Hs-68 cells); type: cell-based, Human Cytomegalovirus (HCMV); conditions: human
Procedure, shortened: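 Hs-68 monolayers (80–90% confluent) were infected with ~50 PFU HCMV AD169 for 2 h at 37°, then given compound in DMEM/5% inactivated FBS, refreshed after 4 days and kept 4 more days. Plaques were counted after formaldehyde fixation and crystal violet staining. EC50 derives from percent plaque reduction versus untreated wells.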

[3] = Human betaherpesvirus 5, AD169, Hs68, Group 1 Table 3 entries
[4] = Human betaherpesvirus 5, AD169, Hs68, Group 1 Table 1 entries
[5] = Human betaherpesvirus 5, AD169, Hs68, Group 1 Table 2 entries
[6] = Group 1 Table 1 entries, read-out: Cytotoxic at this concentration (footnote *, PRA CMV)
[7] = Group 1 Table 2 entries, read-out: Cytotoxic at this concentration (footnote, PRA CMV)

SMILES | EC50 [1, 4] | other results
CNc1nc(-c2ccc(NC(=O)CN(Cc3ccccc3)C(=O)c3ccccc3)cc2)cs1 [Example 6] |  | EC50 [1, 3]: 51 µM
Nc1nc(-c2ccc(NC(=O)CN(Cc3ccccc3)C(=O)CC3CCCCC3)cc2)cs1 [Example 38] | 4 µM | 
Nc1nc(-c2ccc(NC(=O)CN(Cc3ccccc3)C(=O)Cc3ccccc3)cc2)cs1 [Example 26] | 1.8 µM | 
CN(CC(=O)Nc1ccc(-c2csc(N)n2)cc1)Cc1ccccc1 [Example 15] | 6.2 µM | 
CC(C)(C)OC(=O)N(CC(=O)Nc1ccc(-c2csc(N)n2)cc1)Cc1ccncc1 [Example 90] | 3.5 µM | 
Nc1nc(-c2ccc(NC(=O)CN(Cc3ccccc3)C(=O)c3cccnc3)cc2)cs1 [Example 28] | 4.6 µM | 
Nc1nc(-c2ccc(NC(=O)CN(Cc3ccccc3)C(=O)CC3CCCC3)cc2)cs1 [Example 39] | 6.1 µM | 
CC(C)(C)CN(CC(=O)Nc1ccc(-c2csc(N)n2)cc1)C(=O)C1CCCCC1 [Example 80] | 9.5 µM | 
Nc1nc(-c2ccc(NC(=O)CN(Cc3ccccc3)C(=O)Cc3ccccn3)cc2)cs1 [Example 31] | 1.3 µM | 
Nc1nc(-c2ccc(NC(=O)CN(Cc3ccccc3)C(=O)c3cnccn3)cc2)cs1 [Example 33] | 28.2 µM | 
Nc1nc(-c2ccc(NC(=O)CN(Cc3ccccc3)C(=O)c3cccs3)cc2)cs1 [Example 32] | 5.4 µM | 
CC(C)(C)OC(=O)N(CC(=O)Nc1ccc(-c2csc(N)n2)cc1)Cc1ccccc1 [Example 85] | 0.6 µM | 
CC(C)(C)OC(=O)N(CCC(=O)Nc1ccc(-c2csc(N)n2)cc1)CC1CCCCC1 [Example 21] |  | EC50 [1, 5]: 4.2 µM
C[C@@H](c1ccccc1)N(CC(=O)Nc1ccc(-c2csc(N)n2)cc1)C(=O)OC(C)(C)C [Example 89] | 0.9 µM | 
C[C@@H](c1ccccc1)N(CCC(=O)Nc1ccc(-c2csc(N)n2)cc1)Cc1ccccc1 [Example 19] |  | EC50 [1, 5]: 3.1 µM
CN(C)CCN(CC(=O)Nc1ccc(-c2csc(N)n2)cc1)C(=O)C1CCCCC1 [Example 140] | 1.4 µM | 
Nc1nc(-c2ccc(NC(=O)CN(Cc3ccccc3)C(=O)C3CCCCC3)cc2)cs1 [Example 34] | 1 µM | 
Nc1nc(-c2ccc(NC(=O)CN(Cc3ccccc3)C(=O)c3ccccn3)cc2)cs1 [Example 27] | 7 µM | MCC at 192 h [2, 6]: 36 µM

SMILES | EC50 [1, 4] | other results
CN[C@@H](Cc1ccccc1)C(=O)Nc1ccc(-c2csc(N)n2)cc1 [Example 8] |  | EC50 ([1]; Human betaherpesvirus 5, AD169, Hs68, Group 1 Table 5 entries): 1.1 µM
Nc1nc(-c2ccc(NC(=O)CCN(Cc3ccccc3)CC3CCCCC3)cc2)cs1 [Example 17] |  | EC50 [1, 5]: 4.7 µM
Nc1nc(-c2ccc(NC(=O)CN(Cc3ccccc3)S(=O)(=O)c3ccccc3)cc2)cs1 [Example 97] | > 5 µM | 
C[C@@H](NCCC(=O)Nc1ccc(-c2csc(N)n2)cc1)c1ccccc1 [Example 25] |  | EC50 [1, 5]: 1 µM
Nc1nc(-c2ccc(NC(=O)CN(CCc3ccccn3)C(=O)C3CCCCC3)cc2)cs1 [Example 50] | 1.6 µM | 
CC(C)(C)CC(=O)N(CC(=O)Nc1ccc(-c2csc(N)n2)cc1)Cc1ccccc1 [Example 42] | 6 µM | 
CC(C)(C)OC(=O)N(CCC(=O)Nc1ccc(-c2csc(N)n2)cc1)C1Cc2ccccc2C1 [Example 14] |  | EC50 [1, 5]: 0.2 µM
Nc1nc(-c2ccc(NC(=O)CN(CCc3ccccc3)C(=O)C3CCCC3)cc2)cs1 [Example 66] | 0.35 µM | 
Nc1nc(-c2ccc(NC(=O)CN(CCc3ccccn3)C(=O)C3CCCC3)cc2)cs1 [Example 79] | 3.8 µM | 
CC(C)(C)OC(=O)NCC(=O)N(CC(=O)Nc1ccc(-c2csc(N)n2)cc1)Cc1ccccc1 [Example 72] | 7.5 µM | 
CCCC(CCC)N(CC(=O)Nc1ccc(-c2csc(N)n2)cc1)C(=O)C1CCCCC1 [Example 82] | 8.1 µM | MCC at 192 h [2, 6]: 7 µM
Nc1nc(-c2ccc(NC(=O)CCN(Cc3ccccc3)C(=O)C3CCCCC3)cc2)cs1 [Example 8] |  | MCC at 192 h [2, 7]: 13 µM; EC50 [1, 5]: 8.6 µM
CC(C)(C)OC(=O)N(CCC(=O)Nc1ccc(-c2csc(N)n2)cc1)Cc1ccccc1 [Example 15] |  | EC50 [1, 5]: 11.3 µM
Nc1nc(-c2ccc(NC(=O)CCNC3Cc4ccccc4C3)cc2)cs1 [Example 10] |  | MCC at 192 h [2, 7]: 14 µM; EC50 [1, 5]: 7.5 µM
CC(C)c1nc(-c2ccc(NC(=O)CN(Cc3ccccc3)C(=O)c3ccccc3)cc2)cs1 [Example 20] |  | EC50 [1, 3]: 3.3 µM
CN(C)c1nc(-c2ccc(NC(=O)CN(Cc3ccccc3)C(=O)c3ccccc3)cc2)cs1 [Example 11] |  | EC50 [1, 3]: 3.5 µM
C[C@H](NCCC(=O)Nc1ccc(-c2csc(N)n2)cc1)c1ccccc1 [Example 20] |  | EC50 [1, 5]: 0.8 µM
C[C@@H](c1ccccc1)N(CCC(=O)Nc1ccc(-c2csc(N)n2)cc1)C(=O)OC(C)(C)C [Example 18] |  | EC50 [1, 5]: 2.9 µM
